From patent US20020128438A1, “DNA cassette for the production of secretable recombinant trimeric TRAIL proteins, tetracycline/ doxycycline-inducible adeno-associated virus vector, their combination and use in gene therapy” (priority 2000, published 2002)
*1 amine or outer side, *2 acyl side, *3 side chain or, on linkers, in order; H or OH if unused. Where a SMILES comes first, the peptide text is derived from it. Bridges are numbered along the chain shown (N, C = ends). Roman numbers before positions name the chains, in order. [ ]: non-standard residue; d: D form. Actinocin(9to1) = Cc1c2oc3c(C)ccc(C(=O)[*:1])c3nc-2c(C(=O)[*:2])c(N)c1=O; NMeV = CN[C@H](C(=O)O)C(C)C; Sar = CNCC(=O)O

Assays:
[1] = system: various cancer cell lines
monkey = settings: cited from earlier work
mice = settings: systemic delivery; cited from earlier work

| Molecule | concentration at which enhancing activity of ActD was obtained ([1]; enhancement of TRAIL-induced apoptosis) | effect of ActD on TRAIL-induced apoptosis ([1]; various cancer cell lines) | cytotoxicity in monkey (monkey) | cytotoxicity in mice (mice) |
| --- | --- | --- | --- | --- |
| Cc1c2oc3c(C)ccc(C(=O)N[C@@H]4C(=O)N[C@H](C(C)C)C(=O)N5CCC[C@H]5C(=O)N(C)CC(=O)N(C)[C@@H](C(C)C)C(=O)O[C@@H]4C)c3nc-2c(C(=O)N[C@@H]2C(=O)N[C@H](C(C)C)C(=O)N3CCC[C@H]3C(=O)N(C)CC(=O)N(C)[C@@H](C(C)C)C(=O)O[C@@H]2C)c(N)c1=O [ActD, Actinomycin D] (I: T[dV]P[Sar][NMeV] / II: T[dV]P[Sar][NMeV]; ester I:1-I:C, II:1-II:C; linker I:N-II:N via Actinocin(9to1)) | 100 ng/mL | greatly enhanced |  |  |
| TRAIL: TNF family member, type II transmembrane apoptosis-inducing ligand |  |  | no detectable cytotoxicity | no detectable cytotoxicity |
